In the experiment the test system is HeLa cells. The experiment in a line: Fixed cell analysis of mitotic phenotypes (fluorescence / immunofluorescence). In kind it is cell-based, human. The conditions noted are these: 40 µM, 24 h. The procedure: For fixed cell analysis, HeLa or H2B-GFP/mRFP-αTubulin HeLa cells were grown on glass coverslips and treated as described above. Cells were fixed in ice cold methanol and mounted in Mowiol. Alternatively, non fluorescent HeLa were treated and subjected to immunofluorescence with anti-tubulin antibodies (Sigma, DM1A) and Hoechst to stain the DNA. Cells were observed on a Leica DM16000B microscope with the HCX PL APO CS 63x 1.4 objective. Images were taken with a Leica DFC 350FX camera, controlled by Leica Application Suit (LAS-AF 6000) software and processed with Adobe Photoshop.
To get a better idea about the defects causing cell division failure in cells treated with (C), we examined fixed cells to better visualize the chromosomes and the microtubules. […] In parallel, standard HeLa cells were treated in the same way. The cells were fixed and processed for immunofluorescence with anti-tubulin antibodies to visualize the microtubules and Hoechst to stain the DNA.

This is an account of results in patent EP2241565A1, “Aurora kinase inhibitors compounds” (Universität Leipzig, priority 2009, dated 2010).

The structures appear in SMILES notation. “Also recorded” adds a separate entry of the source.

For the compound `CC(C)Nc1nc(-c2ccco2)nc2ccc(C#CCO)cc12` [Compound (C), 3-(2-(Furan-2-yl)-4-(isoiproipylamino)quinazolin-6-yl)prop-2-yn-l-ol], the “mitotic phenotype of fixed cells” value was “increased formation of multipolar spindles and other abnormal mitotic structures; also recorded: large proportion of abnormal mitotic spindles”.
